The source of these data is article PMC10194981, “Chemosensory protein regulates the behavioural response of Frankliniella intonsa and Frankliniella occidentalis to tomato zonate spot virus–Infected pepper (Capsicum annuum)” (PLOS Pathogens, 2023).

For one experiment, the system named is F. intonsa antennae. The experiment is described as follows: Electroantennogram (EAG) assay. Further details: species or system Frankliniella intonsa. The note with it: excised F. intonsa antennae. As for the experimental part:
The FintCSP1, FintCSP2, FintOBP, FintOR, FoccCSP, and enhanced green fluorescent protein (EGFP) coding sequences were obtained from GenBank under accession numbers MT199111, MT211602, OK067245, MT211603, AEP27186.1, and U55761.1, respectively. Primers were designed using Primer Premier 5.0, and the T7 promoter sequence (5′-[…]-3′) was added to the 5′ end of each primer (S1 Table). DNA fragments containing T7 promoter sequences were amplified by PCR using pEASY-T1/target gene or pUC-EGFP (preserved in the laboratory) plasmid DNA as template. Then, a double-stranded RNA (dsRNA) was produced from each target gene using the HiScribe T7 Quick High Yield RNA Synthesis Kit (New England Biolabs) according to the manufacturer’s instructions. Six hundred 2-day-old female F. intonsa or two hundred 2-day-old female F. occidentalis adults were anesthetized using CO2 and microinjected with 40 nL (3 μg/μL) dsRNA (dsFintCSP1 dsFintCSP2, dsFintOBP, dsFintOR or dsFoccCSP or dsEGFP) using a CellTram Oil microinjector (Eppendorf, Hamburg, Germany). The injected thrips were kept on broad beans in an artificial climate incubator as described above and used in subsequent RNAi experiments. Three biological replicates were conducted for each treatment with each dsRNA.
At 24 h after dsRNA injection, the electrophysiological responses of F. intonsa antennae to six volatile components (i.e., m-cymene, cis-3-hexenal, (+)-2-carene, trans-2-hexenal, α-phellandrene, and α-humulene) or F. occidentalis antennae to cis-3-hexenal were recorded using EAG. Antennae of female adult thrips were cut off at the base, and the distal terminus was carefully removed. The tested compounds were dissolved in liquid paraffin, with pure liquid paraffin used as a negative control. An Ag-AgCl2 glass electrode and Kaissling electrode solution were used in the experiment according to Tian et al.. The base of the antenna was inserted into the glass capillary filled with electrode solution at the end of the reference electrode; the top of the antenna was connected to the glass capillary at the end of the recording electrode to ensure no bubbles in the glass capillary. After successful connection, the antennae were stimulated with each chemical in the following order: liquid paraffin, volatile compounds, and liquid paraffin. Stimulus time was 0.2 s with each stimulus at 40 s intervals. At least 10 antennae were tested for each volatile compound. The EAG values to volatile compounds were calculated using the following equation: absolute value of EAG reaction = reaction value of the tested sample—average value of two control measurements.

The test system of another experiment is F. intonsa. Briefly: Y-tube olfactometer preference test. Format: in vivo, Frankliniella intonsa. The note with it: volatile compound vs liquid paraffin control; n = 60. As to the method:
F. intonsa and F. occidentalis preference tests of plant volatile cues were performed using a glass Y-tube olfactometer according to the method described by Wang et al. (2014) with minor modifications. A Y-shaped tube (1-cm inner diameter) consisted of a central tube (10 cm in length) and two arms (10 cm in length, offset by 60°) connected to two different glass odor bottles. One glass odor bottle was 50 cm in height, with a 10-cm inner diameter that contained pepper plants (14-day post-viral infection); the other glass odor bottle was 5 cm in height, with a 3-cm inner diameter for plant VOCs. The airflow in the olfactometer (200 mL/min) was filtered through activated carbon and calibrated using a flow meter at the end of each arm. To remove all visual cues, the Y-tube was positioned horizontally in a black airtight cubic box (90 cm × 60 cm × 40 cm). The tested odor sources (pepper plant VOCs) were enclosed in the odor bottles 5 min prior to each test to allow the odors to fill the arms. Thrips (2-day-old, starved for 1 h) were individually placed in the central tube and allowed to choose between the two arms. When the thrips had climbed over 2/3 of the side arm and stayed there for more than 30 s, it was considered to have made a selection. If the thrips had not made a choice after being placed in the straight arm for 5 min, the insect behaviour was scored as “no selection,” and it was not counted in the total data. The direction of the Y-tube arms and the silicone tubes were adjusted after five tested thrips to eliminate the influence of position. The Y-tube was replaced after 10 tested thrips to eliminate the possible influence of existing odors on thrips behaviour. Each treatment consisted of 20 thrips, with three replicates per treatment.
The FintCSP1, FintCSP2, FintOBP, FintOR, FoccCSP, and enhanced green fluorescent protein (EGFP) coding sequences were obtained from GenBank under accession numbers MT199111, MT211602, OK067245, MT211603, AEP27186.1, and U55761.1, respectively. Primers were designed using Primer Premier 5.0, and the T7 promoter sequence (5′-[…]-3′) was added to the 5′ end of each primer (S1 Table). DNA fragments containing T7 promoter sequences were amplified by PCR using pEASY-T1/target gene or pUC-EGFP (preserved in the laboratory) plasmid DNA as template. Then, a double-stranded RNA (dsRNA) was produced from each target gene using the HiScribe T7 Quick High Yield RNA Synthesis Kit (New England Biolabs) according to the manufacturer’s instructions. […]

Experiment [1] has as its target recombinant wild-type FintCSP1 (Frankliniella intonsa, UniProt A0A891LVF4). The experiment is described as follows: Fluorescence (1-NPN) binding and competitive binding assay, wild-type FintCSP1. As to the method:
FintCSP1 and FoccCSP DNA were released from pEASY-T1/FintCSP1 and pEASY-T1/FoccCSP, respectively, by restriction digestion with BamHI and XhoI and cloned into the pET-30a vector (Invitrogen). The resulting construct was transformed into Transetta (DE3) Escherichia coli competent cells (Transgen). The production of recombinant FintCSP1 and FoccCSP was induced by addition of isopropyl-β-D-1-thiogalactopyranoside (IPTG, 0.2 mM) at 15°C and purified by Ni ion affinity chromatography (Sangon Biotech, Shanghai, China). The target protein was verified by 15% SDS-PAGE, and its concentration was determined with a BCA protein assay kit (Thermo Scientific, Rockford, IL, USA). The recombinant purified protein was stored at −20°C until use.
The binding affinity of FintCSP1 and FoccCSP to the fluorescent probe N-phenyl-1-naphthylamine (1-NPN) was tested using a Spectramax M2 fluorescence spectrometer (Molecular Devices, USA) as reported previously. […] The 1-NPN/FintCSP1 or 1-NPN/FoccCSP mixture was excited at 280 nm, and the emission spectra were recorded at 415 nm. The binding constants (Kd) of FintCSP1 or FoccCSP to 1-NPN were calculated by Scatchard analysis using Prism 5 software (GraphPad, La Jolla, CA, USA). Assuming a protein activity of 100% and that the volatile compound binds to the protein in a 1:1 ratio at saturation, the dissociation constants (Ki) of FintCSP1 or FoccCSP for each ligand were calculated according to the IC50 (the concentration when the ligand replaces 50% of the probe) value of the volatile compounds. The Ki values were calculated according to the following equation: Ki = [IC50]/(1 + [1-NPN]/K1-NPN), where [1-NPN] is the free concentration of 1-NPN, and K1-NPN is the Kd of the 1-NPN/FintCSP1 or 1-NPN/FoccCSP.

Structures are written as SMILES. Entries after “also recorded” stand apart in the source; their conditions may differ.

Chain of recombinant wild-type FintCSP1 (A0A891LVF4 entry or part of it): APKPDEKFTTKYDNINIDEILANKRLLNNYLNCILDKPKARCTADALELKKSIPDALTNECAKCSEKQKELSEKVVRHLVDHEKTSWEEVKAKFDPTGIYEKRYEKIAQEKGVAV

On to `Cc1cccc(C(C)C)c1` [m-cymene], for which the EAG peak amplitude result in the experiment with F. intonsa antennae (10 mg/L in liquid paraffin) is recorded as “approximately –0.034 mV”. In the experiment on F. intonsa, the “preference of F. intonsa in Y-tube olfactometer (in words)” value is reported as “appeared to repel F. intonsa, but this result was not statistically significant”.
Consider `CCC/C=C/C=O` [trans-2-hexenal], for which, in the experiment on F. intonsa antennae (1 mg/L in liquid paraffin), the EAG peak amplitude entry is “–0.024 mV”. Also, in experiment [1], the concentration for half-maximal inhibition (IC50) is greater than 100 µM and the inhibition constant (Ki) was greater than 100 µM. Besides, the “binding affinity to FintCSP1 (in words)” value in experiment [1] (wild-type FintCSP1, competitive fluorescence binding assay, classes of Ki) is recorded as “no FintCSP1 binding; also recorded: could not bind”.
In the case of `C/C1=C\CC/C(C)=C/CC(C)(C)/C=C/C1` [α-humulene], the EAG peak amplitude result with F. intonsa antennae (1 mg/L in liquid paraffin) was “–0.024 mV”.
